In patent EP2837626A1, “Indolinone derivatives as GRK5 modulators” (Max-Planck-Gesellschaft zur Förderung der Wissenschaften …, priority 2013, dated 2015):
pIC50: −log10 of the molar value. Read-outs that look alike come from different tables or passages of the source.

Key:
full length GRK5 = target: T1, full length GRK5 (Homo sapiens, UniProt P34947); assay: IC50 determination of compounds inhibiting GRK5 by ADP Glo Kinase Assay technology (Promega); format: biochemical
T1 construct: 6/2 fold concentrated full length GRK5 (Millipore, #14-714) in reaction buffer is added to each well; purchased Millipore 14-714

GRK5 = target: T2, GRK5 (Homo sapiens, UniProt P34947); assay: IC50 determination of compounds inhibiting GRK5 by Millipore KinaseProfiler (radiometric filtration binding assay); format: biochemical; settings: 2 mg/mL casein, 40 minutes at room temperature
T2 construct: purchased Millipore
Description: IC50 values are determined by a radiometric based filtration binding assay, namely Millipore KinaseProfiler™. GRK5 is incubated with 8 mM MOPS pH 7.0, 0.2 mM EDTA, 2 mg/mL casein, 10 mM MgAcetate and […] (specific activity approx. 500 cpm/pmol, concentration as required). The reaction is initiated by the addition of the MgATP mix. After incubation for 40 minutes at room temperature, the reaction is stopped by the addition of 3 % phosphoric acid solution. 10 µL of the reaction is then spotted onto a P30 filtermat and washed three times for 5 minutes in 75 mM phosphoric acid and once in methanol prior to drying and scintillation counting.

[1] = 20 nM GRK5, 18.7 µM ATP, 10 µM casein, 12 concentrations, triplicates, read-out: GRK5 IC50

T2 sequence (P34947 whole entry): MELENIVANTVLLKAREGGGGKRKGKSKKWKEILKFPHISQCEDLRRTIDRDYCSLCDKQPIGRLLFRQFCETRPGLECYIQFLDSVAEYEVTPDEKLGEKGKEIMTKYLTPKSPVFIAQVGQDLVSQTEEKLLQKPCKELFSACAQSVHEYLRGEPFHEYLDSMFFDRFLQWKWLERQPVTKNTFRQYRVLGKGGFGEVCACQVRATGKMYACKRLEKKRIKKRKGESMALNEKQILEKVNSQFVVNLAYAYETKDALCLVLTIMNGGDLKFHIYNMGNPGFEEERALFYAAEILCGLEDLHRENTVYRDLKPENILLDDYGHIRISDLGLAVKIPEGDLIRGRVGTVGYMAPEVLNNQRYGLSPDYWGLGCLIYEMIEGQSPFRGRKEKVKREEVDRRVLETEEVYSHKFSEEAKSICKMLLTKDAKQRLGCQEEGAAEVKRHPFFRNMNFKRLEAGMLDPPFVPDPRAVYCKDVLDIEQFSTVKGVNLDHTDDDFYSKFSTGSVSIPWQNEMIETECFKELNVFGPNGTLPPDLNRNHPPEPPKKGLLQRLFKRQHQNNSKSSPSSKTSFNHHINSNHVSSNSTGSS
T1 sequence (P34947 whole entry): as above

SMILES	pIC50 (full length GRK5; [1])	pIC50 (GRK5)	pIC50 (full length GRK5; read-out: GRK5 IC50, 20 nM GRK5, 18.7 µM ATP, 10 µM casein, 12 concentrations, triplicates)
CC[C@H](NC(=O)c1ccc2c(c1)/C(=C/c1[nH]c(C)c(C(=O)N3CCC[C@H]3CN3CCCC3)c1C)C(=O)N2)c1ccccc1 [Compound 47, (3Z)-3-[(3,5-dimethyl-4-{[(2S)-2-(pyrrolidin-1-ylmethyl)pyrrolidin-1-yl]carbonyl}-1H-pyrrol-2-yl)methylene]-2-oxo-N-[(1S)-1-phenylpropyl]indoline-5-carboxamide]	4.70 to 5.30	4.70 to 5.30	
CC[C@@H](NC(=O)c1ccc2c(c1)/C(=C/c1[nH]c(C)c(C(=O)N3CCC[C@@H]3CN3CCCC3)c1C)C(=O)N2)c1ccccc1 [Compound 48, (3Z)-3-[(3,5-dimethyl-4-{[(2R)-2-(pyrrolidin-1-ylmethyl)pyrrolidin-1-yl]carbonyl}-1H-pyrrol-2-yl)methylene]-2-oxo-N-[(1R)-1-phenylpropyl]indoline-5-carboxamide]	> 5.30	> 5.30	
Cc1[nH]c(/C=C2\C(=O)Nc3ccc(C(=O)N[C@@H](C)c4cccc(Cl)c4)cc32)c(C)c1C(=O)N1CCCCC1 [Compound 56, (3Z)-N-[(1S)-1-(3-chlorophenyl)ethyl]-3-{[3,5-dimethyl-4-(piperidin-1-ylcarbonyl)-1H-pyrrol-2-yl]methylene}-2-oxoindoline-5-carboxamide]	< 4.52	< 4.52	
CC[C@H](NC(=O)c1ccc2c(c1)/C(=C/c1[nH]c(C)c(C(=O)NCCN(CC)CC)c1C)C(=O)N2)c1ccccc1 [Compound 62, (3Z)-3-[(4-{[2-(diethylamino)ethyl]carbamoyl}-3,5-dimethyl-1H-pyrrol-2-yl)methylene]-2-oxo-N-[(1S)-1-phenylpropyl]indoline-5-carboxamide]	< 4.52	< 4.52	
Cc1[nH]c(/C=C2\C(=O)Nc3ccc(C(=O)N[C@@H](C)c4ccc(F)cc4)cc32)c(C)c1C(=O)N1CCCCC1 [Compound 64, (3Z)-3-{[3,5-dimethyl-4-(piperidin-1-ylcarbonyl)-1H-pyrrol-2-yl]methylene}-N-[(1S)-1-(4-fluorophenyl)ethyl]-2-oxoindoline-5-carboxamide]	< 4.52	< 4.52	
COc1ccc([C@@H](C)NC(=O)c2ccc3c(c2)/C(=C/Nc2ccc(CN4CCCCC4)cc2)C(=O)N3)cc1 [Compound 70, (3Z)-N-[(1R)-1-(4-methoxyphenyl)ethyl]-2-oxo-3-({[4-(piperidin-1-ylmethyl)phenyl]amino}methylene)indoline-5-carboxamide]		> 5.30	> 5.30
C[C@@H](NC(=O)c1ccc2c(c1)/C(=C/Nc1ccc(CN3CCCCC3)cc1)C(=O)N2)c1ccc(Cl)cc1 [Compound 73, (3Z)-N-[(1R)-1-(4-chlorophenyl)ethyl]-2-oxo-3-({[4-(piperidin-1-ylmethyl)phenyl]amino}methylene)indoline-5-carboxamide]	> 5.30	> 5.30	

Further lines, with some results ahead:

pIC50 (full length GRK5; [1])	pIC50 (GRK5)	SMILES	pIC50 (full length GRK5; read-out: GRK5 IC50, 20 nM GRK5, 18.7 µM ATP, 10 µM casein, 12 concentrations, triplicates)
> 5.30	> 5.30	CC[C@@H](NC(=O)c1ccc2c(c1)/C(=C/c1[nH]c(C)c(C(=O)N3CCC[C@H]3CN3CCCC3)c1C)C(=O)N2)c1ccccc1 [Compound 46, (3Z)-3-[(3,5-dimethyl-4-{[(2S)-2-(pyrrolidin-1-ylmethyl)pyrrolidin-1-yl]carbonyl}-1H-pyrrol-2-yl)methylene]-2-oxo-N-[(1R)-1-phenylpropyl]indoline-5-carboxamide]	
< 4.52	< 4.52	CC[C@H](NC(=O)c1ccc2c(c1)/C(=C/c1[nH]c(C)c(C(=O)N3CCC(N4CCN(C)CC4)CC3)c1C)C(=O)N2)c1ccccc1 [Compound 52, (3Z)3-[(3,5-dimethyl-4-{[4-(4-methylpiperazin-1-yl)piperidin-1-yl]carbonyl}-1H-pyrrol-2-yl)methylene]-2-oxo-N-[(1S)-1-phenylpropyl]indoline-5-carboxamide]	
4.70 to 5.30	> 5.30	CC[C@@H](NC(=O)c1ccc2c(c1)/C(=C/c1[nH]c(C)c(C(=O)N3CCC(N4CCN(C)CC4)CC3)c1C)C(=O)N2)c1ccccc1 [Compound 53, (3Z)-3-[(3,5-dimethyl-4-{[4-(4-methylpiperazin-1-yl)piperidin-1-yl]carbonyl}-1H-pyrrol-2-yl)methylene]-2-oxo-N-[(1R)-1-phenylpropyl]indoline-5-carboxamide]	
< 4.52	< 4.52	Cc1[nH]c(/C=C2\C(=O)Nc3ccc(C(=O)N[C@@H](C)c4ccccc4)cc32)c(C)c1C(=O)N1CCCCC1 [Compound 54, (3Z)-3-{[3,5-dimethyl-4-(piperidin-1-ylcarbonyl)-1H-pyrrol-2-yl]methylene}-2-oxo-N-[(1S)-1-phenylethyl]indoline-5-carboxamide]	
> 5.30	> 5.30	Cc1[nH]c(/C=C2\C(=O)Nc3ccc(C(=O)N[C@H](C)c4cccc(Cl)c4)cc32)c(C)c1C(=O)N1CCCCC1 [Compound 55, (3Z)-N-[(1R)-1-(3-chlorophenyl)ethyl]-3-{[3,5-dimethyl-4-(piperidin-1-ylcarbonyl)-1H-pyrrol-2-yl]methylene}-2-oxoindoline-5-carboxamide]	
< 4.52	< 4.52	CC[C@H](NC(=O)c1ccc2c(c1)/C(=C/c1[nH]c(C)c(C(=O)N3CCCCC3)c1C)C(=O)N2)c1ccccc1 [Compound 57, (3Z)-3-{[3,5-dimethyl-4-(piperidin-1-ylcarbonyl)-1H-pyrrol-2-yl]methylene}-2-oxo-N-[(1S)-1-phenylpropyl]indoline-5-carboxamide]	
> 5.30	> 5.30	CC[C@@H](NC(=O)c1ccc2c(c1)/C(=C/c1[nH]c(C)c(C(=O)N3CCCCC3)c1C)C(=O)N2)c1ccccc1 [Compound 63, (3Z)-3-{[3,5-dimethyl-4-(piperidin-1-ylcarbonyl)-1H-pyrrol-2-yl]methylene}-2-oxo-N-[(1R)-1-phenylpropyl]indoline-5-carboxamide]	
> 5.30	< 4.52	COc1ccc([C@H](C)NC(=O)c2ccc3c(c2)/C(=C/c2[nH]c(C)c(C(=O)N4CCCCC4)c2C)C(=O)N3)cc1 [Compound 65, (3Z)-3-{[3,5-dimethyl-4-(piperidin-1-ylcarbonyl)-1H-pyrrol-2-yl]methylene}-N-[(1S)-1-(4-methoxyphenyl)ethyl]-2-oxoindoline-5-carboxamide]	
> 5.30	> 5.30	C[C@@H](c1ccccc1)N(C)C(=O)c1ccc2c(c1)/C(=C/Nc1ccc(CN3CCCCC3)cc1)C(=O)N2 [Compound 71, (3Z)-N-methyl-2-oxo-N-[(1S)-1-phenylethyl]-3-({[4-(piperidin-1-ylmethyl)phenyl]amino}methylene)indoline-5-carboxamide]	
> 5.30	> 5.30	Cc1ccc([C@@H](C)NC(=O)c2ccc3c(c2)/C(=C/Nc2ccc(CN4CCCCC4)cc2)C(=O)N3)cc1 [Compound 72, (3Z)-N-[(1R)-1-(4-methylphenyl)ethyl]-2-oxo-3-({[4-(piperidin-1-ylmethyl)phenyl]amino}methylene)indoline-5-carboxamide]	
